Experimental data: US20080260637A1, “Methods of Detecting Prostate Cancer” (priority 2004, published 2008)

What was measured:
[1] = tested on: prostate cancer tumor areas; assay: SPECT imaging of excised intact prostate after intravenous Tc^99Sestamibi, compared with whole mount histopathology; type: in vivo, human; settings: 25mCi i.v. 1-2 hours prior to prostate excision; ex-vivo SPECT of intact prostate; two patients shown
Procedure: Twelve prostate cancer patients were intravenously administered with 25mCi Tc^99Sestamibi 1-2 hours prior to prostate excision. Intact prostates were excised using surgical procedures (Radical Retro pubic Prostatectomy, Radical Cystectomy or Open Prostatectomy)—illustrated in FIG. 3. The intact prostate was imaged by SPECT using a standard dual head gamma camera (millennium, GE) 6° angular step and 40 sec/step. Imaging results were reviewed using both transaxial (FIGS. 4I-N and FIGS. 5C-D) and coronal views (FIGS. 4O-T and FIG. 5E). The nuclear images were processed automatically. The designated green lines seen in FIGS. 4I-M and 4O-R and 5C and 5E were produced following an automatic search for maximal intensity voxel. Contours were determined at 90% maximal intensity. Following imaging, prostate tissue was sliced transversely from bladder neck (base) to apex. Whole mount histopathology was carried out as described in Example 1.

mitochondria = settings: energy dependent manner; cited from earlier work

## [C-]#[N+]CC(C)(C)OC.[C-]#[N+]CC(C)(C)OC.[C-]#[N+]CC(C)(C)OC.[C-]#[N+]CC(C)(C)OC.[C-]#[N+]CC(C)(C)OC.[C-]#[N+]CC(C)(C)OC.[Tc] [Tc^99Sestamibi]
[1]
  identification of tumor areas by SPECT scanning: identified tumor areas as corroborated by whole mount histopathology
mitochondria
  fraction of agent taken up by mitochondria: more than 90%
